Reference: BindingDB's records for PubMed 38748608 (University of Florida)

Biological target: Neuronal acetylcholine receptor alpha9/alpha10 (Homo sapiens)
Assay: Partial agonist activity at human alpha9alpha10 nAChR expressed as xenopus laevis oocytes assessed as increase in receptor desensitization measured after 120 secs by two-electrode voltage-clamp electrophysiology method

For `CC[N+]1(C)CCN(c2ccc(NC(C)=O)cc2)CC1`, the EC50 was 640 nM.
